Calls of active or inactive are those of the source. No cut-off for these calls is given here.
Legend:
[1] = target: T1, Nucleotide-binding oligomerization domain-containing protein 1 (Homo sapiens) (UniProt Q9Y239); test: Agonist activity at human Nod1 expressed in human Ramos cells assessed as reduction of NF-kappaB transcriptional activity at 10 uM after 24 hrs by SEAP reporter gene assay in presence of nod1 antagonist noditinib-1; format: cell-based
T1 sequence (whole entry): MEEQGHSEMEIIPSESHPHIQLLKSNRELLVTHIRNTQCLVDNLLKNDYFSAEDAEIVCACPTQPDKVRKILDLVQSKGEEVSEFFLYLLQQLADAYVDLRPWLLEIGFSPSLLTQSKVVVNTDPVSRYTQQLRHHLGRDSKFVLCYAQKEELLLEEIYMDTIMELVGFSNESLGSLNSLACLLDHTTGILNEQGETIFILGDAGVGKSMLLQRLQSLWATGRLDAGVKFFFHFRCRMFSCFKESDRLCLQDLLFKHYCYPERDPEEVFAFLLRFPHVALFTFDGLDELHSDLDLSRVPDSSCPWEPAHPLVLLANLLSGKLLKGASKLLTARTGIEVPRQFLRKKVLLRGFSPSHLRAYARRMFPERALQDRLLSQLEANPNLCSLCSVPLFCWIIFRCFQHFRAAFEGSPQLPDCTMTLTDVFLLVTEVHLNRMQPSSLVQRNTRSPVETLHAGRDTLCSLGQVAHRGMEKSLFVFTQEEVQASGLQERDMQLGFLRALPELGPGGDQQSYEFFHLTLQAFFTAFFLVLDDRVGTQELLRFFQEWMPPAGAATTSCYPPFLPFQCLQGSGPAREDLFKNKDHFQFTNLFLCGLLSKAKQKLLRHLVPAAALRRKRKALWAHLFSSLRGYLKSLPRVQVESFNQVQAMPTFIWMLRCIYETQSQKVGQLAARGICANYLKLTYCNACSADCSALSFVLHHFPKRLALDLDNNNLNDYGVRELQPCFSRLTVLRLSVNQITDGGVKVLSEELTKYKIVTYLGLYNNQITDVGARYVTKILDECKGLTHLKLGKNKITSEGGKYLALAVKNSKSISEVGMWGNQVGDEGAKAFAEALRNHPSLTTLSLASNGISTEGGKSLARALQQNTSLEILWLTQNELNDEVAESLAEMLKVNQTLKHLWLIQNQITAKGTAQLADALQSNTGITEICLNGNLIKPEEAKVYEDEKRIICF

PBMC [2] = test: Immunomodulatory activity in human PBMC assessed as increase in IL-8 production at 10 uM after 24 hrs by flow cytometric analysis; format: functional, cell-based
PBMC [3] = test: Immunomodulatory activity in human PBMC assessed as increase in LPS-induced IL-8 production at 10 uM after 24 hrs by flow cytometric analysis; format: functional, cell-based
PBMC [4] = test: Immunomodulatory activity in human PBMC assessed as increase in LPS-induced IL-1beta production at 10 uM after 24 hrs by flow cytometric analysis; format: functional, cell-based
PBMC [5] = test: Immunomodulatory activity in human PBMC assessed as increase in LPS-induced IL-10 production at 10 uM after 24 hrs by flow cytometric analysis; format: functional, cell-based
PBMC [6] = test: Immunomodulatory activity in human PBMC assessed as increase in IL-6 production at 10 uM after 24 hrs by flow cytometric analysis; format: functional, cell-based
PBMC [7] = test: Immunomodulatory activity in human PBMC assessed as increase in IL-1beta production at 10 uM after 24 hrs by flow cytometric analysis; format: functional, cell-based
PBMC [8] = test: Immunomodulatory activity in human PBMC assessed as increase in IL-10 production at 10 uM after 24 hrs by flow cytometric analysis; format: functional, cell-based
PBMC [9] = test: Immunomodulatory activity in human PBMC assessed as increase in LPS-induced TNF-alpha production at 10 uM after 24 hrs by flow cytometric analysis; format: functional, cell-based
PBMC [10] = test: Immunomodulatory activity in human PBMC assessed as increase in LPS-induced IL-6 production at 10 uM after 24 hrs by flow cytometric analysis; format: functional, cell-based
PBMC [11] = test: Immunomodulatory activity in human PBMC assessed as increase in IL-12p70 production at 10 uM after 24 hrs by flow cytometric analysis; format: functional, cell-based
PBMC [12] = test: Immunomodulatory activity in human PBMC assessed as increase in LPS-induced IL-12p70 production at 10 uM after 24 hrs by flow cytometric analysis; format: functional, cell-based
PBMC [13] = test: Immunomodulatory activity in human PBMC assessed as increase in TNF-alpha production at 10 uM after 24 hrs by flow cytometric analysis; format: functional, cell-based
[14] = target: T1, Nucleotide-binding oligomerization domain-containing protein 1 (Homo sapiens); test: Agonist activity at human Nod1 expressed in human Ramos-Blue cells assessed as increase in NF-kappaB transcriptional activity at 10 uM after 24 hrs by SEAP reporter gene assay; format: cell-based

SMILES: CCCCCCCCCCCC(=O)N[C@H](CCC(=O)N[C@@H](/C=C/C[C@@H](N)C(=O)O)C(=O)O)C(=O)O
- Activity [1]: Active
- Activity (PBMC [2]): Active
- Activity (PBMC [3]): inactive
- Activity (PBMC [4]): inactive
- Activity (PBMC [5]): Active
- Activity (PBMC [6]): Active
- Activity (PBMC [7]): Active
- Activity (PBMC [8]): Active
- Activity (PBMC [9]): inactive
- Activity (PBMC [10]): Active
- Activity (PBMC [11]): inactive
- Activity (PBMC [12]): inactive
- Activity (PBMC [13]): Active
- Activity [14]: Active

SMILES: CCCCCCCCCCCCN(CCCCCCCCCCCC)[C@H](CCC(=O)N[C@@H](C/C=C/[C@@H](N)C(=O)O)C(=O)O)C(=O)O
- Activity [1]: Active
- Activity (PBMC [2]): Active
- Activity (PBMC [3]): inactive
- Activity (PBMC [4]): inactive
- Activity (PBMC [5]): inactive
- Activity (PBMC [6]): Active
- Activity (PBMC [7]): Active
- Activity (PBMC [8]): Active
- Activity (PBMC [9]): inactive
- Activity (PBMC [10]): Active
- Activity (PBMC [11]): inactive
- Activity (PBMC [12]): inactive
- Activity (PBMC [13]): Active
- Activity [14]: Active

SMILES: CCCCCCCCCCCCN(CCCCCCCCCCCC)[C@H](CCC(=O)N[C@@H](/C=C/C[C@@H](N)C(=O)O)C(=O)O)C(=O)O
- Activity [1]: Active
- Activity (PBMC [2]): Active
- Activity (PBMC [3]): inactive
- Activity (PBMC [4]): inactive
- Activity (PBMC [5]): Active
- Activity (PBMC [6]): Active
- Activity (PBMC [7]): Active
- Activity (PBMC [8]): Active
- Activity (PBMC [9]): inactive
- Activity (PBMC [10]): Active
- Activity (PBMC [11]): inactive
- Activity (PBMC [12]): inactive
- Activity (PBMC [13]): Active
- Activity [14]: Active

SMILES: CCCCCCCCCCCC(=O)N[C@H](CCC(=O)N[C@@H](C/C=C/[C@@H](N)C(=O)O)C(=O)O)C(=O)O
- Activity [1]: Active
- Activity (PBMC [2]): Active
- Activity (PBMC [3]): inactive
- Activity (PBMC [4]): inactive
- Activity (PBMC [5]): Active
- Activity (PBMC [6]): Active
- Activity (PBMC [7]): Active
- Activity (PBMC [8]): Active
- Activity (PBMC [9]): Active
- Activity (PBMC [10]): Active
- Activity (PBMC [11]): inactive
- Activity (PBMC [12]): inactive
- Activity (PBMC [13]): Active
- Activity [14]: Active

SMILES: CCCCCCCCCCCC(=O)N[C@H](CCC(=O)N[C@@H](CCC[C@@H](N)C(=O)O)C(=O)O)C(=O)O
- Activity [1]: Active
- Activity (PBMC [2]): Active
- Activity (PBMC [3]): inactive
- Activity (PBMC [4]): inactive
- Activity (PBMC [5]): Active
- Activity (PBMC [6]): Active
- Activity (PBMC [7]): Active
- Activity (PBMC [8]): Active
- Activity (PBMC [9]): Active
- Activity (PBMC [10]): Active
- Activity (PBMC [11]): inactive
- Activity (PBMC [12]): inactive
- Activity (PBMC [13]): Active
- Activity [14]: Active

Reference: ChEMBL document CHEMBL2434941, “Synthesis of conformationally constrained γ-D-glutamyl-meso-diaminopimelic acid derivatives as ligands of nucleotide-binding oligomerization domain protein 1 (Nod1)” (Eur J Med Chem, 2013)
